Source: US11834679B2, “Method for producing cardiomyocytes” (KATAOKA CORPORATION, priority 2018, dated 2023)

System: human fibroblasts
Assay: Direct induction from human fibroblasts to cardiomyocytes (microscopic observation of morphology and pulsation)
Assay type: cell-based
Description: The human fibroblasts used as the material were purchased from DS Pharma Biomedical Co., Ltd. The fibroblasts are derived from human skin. The human fibroblasts were seeded in 8×10^4 portions in 35-mm dishes coated with gelatin (Cat #: 190-15805, manufactured by Wako Pure Chemical Co.) and cultured in DMEM high glucose medium (manufactured by Gibco) supplemented with 10% fetal bovine serum (Fetal bovine serum; FBS), 100 U/mL penicillin, and 100 μg/mL streptomycin for 2 days at 37° C. under 5% CO2 conditions (80-90% or more confluent). DMEM denotes Dulbecco's Modified Eagle Medium (Dulbecco's Modified Eagle Medium). The medium of dishes of the human fibroblasts described above was replaced with a medium of DMEM (High Glucose with L-Glutamine Phenol Red, and Sodium Pyruvate) (manufactured by Gibco) having 20% fetal bovine serum (FBS), 2% B27-supplement (manufactured by Gibco), 1% N2 (manufactured by Gibco), non-essential amino acids (NEAA: manufactured by Gibco), β-mercaptoethanol (manufactured by Nacalai Tesque; final concentration of 0.1 mmol/L), 2-phospho ascorbic acid (manufactured by Sigma-Aldrich; final concentration of 50 μg/mL), 100 U/mL penicillin, 100 μg/mL streptomycin, and low molecular weight compounds described below. […] This was assessed by observing cell clumps that contract spontaneously and periodically under a microscope. […]

## O=C(NOC[C@H](O)CO)c1ccc(F)c(F)c1Nc1ccc(I)cc1F [Ex. A, PD0325901]
Tables 1-2, FIGS. 1-6, culture day 7 to 17
  appearance of spontaneously contracting (myocardial) cell clumps: low in frequency
Human skin fibroblasts cultured with the compound combination, grades ⊚, ◯, Δ, X not defined
  Induction efficiency (Morphology, pulsation): Δ
